Data taken from article PMC11249953, “c-KIT inhibitors reduce pathology and improve behavior in the Tg(SwDI) model of Alzheimer’s disease” (Life Science Alliance, 2024).
Values joined by “and” are separate entries in the source; they are usually repeats but may differ in a detail not shown here. Equal entries are not always repeated.

Tests used:
mice = experiment: Elevated plus maze, source data sheets EPM (mouse line not given); type: in vivo; details: for EPM Totals Time Closed / EPM Totals Time Open / EPM Totals Closed Entries / EPM Totals Open Entries: sum of trials 1 and 2; for EPM Totals Time Closed / EPM Totals Time Open / EPM Totals Closed Entries / EPM Totals Open Entries / EPM Trial 1 Closed Entries / EPM Trial 1 Open Entries / EPM Trial 2 Closed Entries / EPM Trial 2 Open Entries / EPM Trial 2 Time Closed / EPM Trial 1 Time Closed / EPM Trial 1 Time Open / EPM Trial 2 Time Open: individual mice; for EPM Totals Time Closed / EPM Totals Time Open / EPM Trial 2 Time Closed / Time Open: in s (unit assumed); for EPM Trial 1 Time Closed / EPM Trial 1 Time Open / EPM Trial 2 Time Open / Time Closed / Time Closed AVG / Time Open AVG: in s; for Closed Entries AVG / Open Entries AVG / Time Closed AVG / Time Open AVG: group average
Procedure: The elevated plus maze was performed using a standard set up, with two enclosed arms and two open arms. Mice were placed at the intersection of the open and closed arms and allowed to freely explore for 5 min, two times. Time spent in the open and closed arms and number of entries into the open and closed arms were recorded.

TgAPP mice = experiment: Novel object recognition, TgAPP mice; type: in vivo, mouse; details: BK40143 5 mg/kg, BK40197 45 mg/kg IP, 6 wk, vs DMSO
Procedure: Novel object recognition was carried out using a 50 × 50 cm arena with clear walls covered by brown construction paper. Mice were habituated to the room for 30 min each day, before being allowed to freely explore the arena for 5 min two times, for 3 d. On the 4th d, two identical objects were placed in the arena in opposite adjacent corners, 10 cm from the corner of the arena. Mice were placed along the wall opposite from the objects and allowed to freely explore for 10 min. Approach behavior (extending nose toward the object) toward both objects was recorded manually using handheld stop watches and compared with ensure there was no preference for either neutral object. For the probe trial, one object was removed and replaced with a novel object, and mice were again allowed to freely explore for 10 min, with approach time towards the novel and familiar objects recorded. Trials in which the mice explored for less than 1 s were excluded. Discrimination index was calculated by dividing time spent exploring the novel object by total time exploring both objects and was compared for treated versus control animals.

[1] = 2.5mg/kg, listed as 143, male mice
[2] = 5.0mg/kg, listed as 143, female mice
[3] = 5.0mg/kg, listed as 143, male mice
[4] = Totals (Trial 1 + Trial 2), individual animals, listed as 143
[5] = Trial 1, individual animals, listed as 143
[6] = Trial 2, individual animals, listed as 143

Cc1cccc(-c2cc3nccc(Nc4ccccc4)c3s2)c1 [BK40143]
EPM Totals Time Closed (mice; [1]): 506
EPM Totals Time Open (mice; [1]): 94
EPM Totals Closed Entries (mice; [1]): 16
EPM Totals Open Entries (mice; [1]): 18
EPM Trial 1 Closed Entries (mice; [2]): 2 and 3 and 5 and 4
EPM Trial 1 Open Entries (mice; [2]): 1 and 5 and 4
EPM Trial 2 Closed Entries (mice; [2]): 1 and 6 and 13
EPM Trial 2 Open Entries (mice; [2]): 0 and 6 and 1 and 7
EPM Trial 2 Time Closed (mice; [2]): 300 and 219 and 298 and 244
EPM Trial 2 Time Closed (mice; [3]): 237 and 280 and 238
EPM Trial 1 Time Closed (mice; [2]): 297 and 266 and 284 and 290 and 268 and 259
EPM Trial 1 Time Open (mice; [2]): 3 and 34 and 16 and 10 and 32 and 41
EPM Trial 2 Time Open (mice; [2]): 0 and 81 and 2 and 56
EPM Trial 1 Time Closed (mice; [3]): 300 and 261 and 228 and 166
EPM Trial 1 Time Open (mice; [3]): 0 and 39 and 72 and 134
EPM Trial 2 Time Open (mice; [3]): 63 and 20 and 62
EPM Trial 1 Closed Entries (mice; [3]): 1 and 6 and 9
EPM Trial 1 Open Entries (mice; [3]): 0 and 6 and 9
EPM Trial 2 Closed Entries (mice; [3]): 7 and 8
EPM Trial 2 Open Entries (mice; [3]): 3 and 8
EPM Totals Closed Entries (mice; [2]): 3 and 9 and 6 and 17
EPM Totals Open Entries (mice; [2]): 1 and 11 and 4 and 5
EPM Totals Time Closed (mice; [2]): 597 and 485 and 584 and 590 and 566 and 503
EPM Totals Time Open (mice; [2]): 3 and 115 and 16 and 10 and 34 and 97
EPM Totals Time Closed (mice; [3]): 600 and 498 and 508 and 404
EPM Totals Time Open (mice; [3]): 0 and 102 and 92 and 196
EPM Totals Closed Entries (mice; [3]): 2 and 11 and 13
EPM Totals Open Entries (mice; [3]): 0 and 9 and 17
Closed Entries (mice; [4]): 15 and 5 and 8 and 6 and 9 and 14 and 11
Open Entries (mice; [4]): 10 and 7 and 8 and 6 and 12 and 17
Time Closed (mice; [4]): 435 and 498 and 481 and 538 and 465 and 421 and 544 and 262 and 497 and 529
Time Open (mice; [4]): 165 and 102 and 119 and 62 and 135 and 179 and 56 and 338 and 103 and 71
Closed Entries AVG (mice; Totals): 11.2
Open Entries AVG (mice; Totals): 9.1
Time Closed AVG (mice; Totals): 467
Time Open AVG (mice; Totals): 133
Closed Entries AVG (mice; Trial 1): 6.6
Open Entries AVG (mice; Trial 1): 5.8
Time Closed AVG (mice; Trial 1): 206.8
Time Open AVG (mice; Trial 1): 93.2
Closed Entries (mice; [5]): 9 and 2 and 6 and 3 and 5 and 8 and 10 and 7
Open Entries (mice; [5]): 7 and 3 and 6 and 5 and 4 and 9
Time Closed (mice; [5]): 160 and 258 and 206 and 186 and 167 and 254 and 112 and 227 and 240
Time Open (mice; [5]): 140 and 42 and 94 and 114 and 133 and 46 and 188 and 73 and 60
Closed Entries AVG (mice; Trial 2): 4.6
Open Entries AVG (mice; Trial 2): 3.3
Time Closed AVG (mice; Trial 2): 260.2
Time Open AVG (mice; Trial 2): 39.8
Closed Entries (mice; [6]): 6 and 3 and 2 and 4 and 7
Open Entries (mice; [6]): 3 and 4 and 2 and 5 and 1 and 8
Time Closed (mice; [6]): 275 and 240 and 280 and 279 and 254 and 290 and 150 and 270 and 289
Time Open (mice; [6]): 25 and 60 and 20 and 21 and 46 and 10 and 150 and 30 and 11
Time/Entry (mice; total Time Open per total Open Entries, individual animals, listed as 143): 16.5 and 14.5714 and 14.875 and 8.857 and 22.5 and 14.9167 and 9.333 and 19.8824 and 10.3 and 8.875
novel object recognition: time exploring the novel object (TgAPP mice): spent significantly greater amounts of time exploring the novel object
